From paper PMC8920630 (Evidence-based Complementary and Alternative Medicine : eCAM, 2022)
Read-outs that look alike come from different tables or passages of the source.

Legend:
in vitro = details: PAMPA
[1] = PAMPA-BBB, prediction of CNS permeability; details: for Prediction of CNS penetration: class from experimental Pe, limits of Di et al., 2003
[2] = test system: primary porcine brain endothelial cells (PBECs); details: cited from earlier work
[3] = parameters: method as in PMID 27992940; details: cited from earlier work

Compound	Papp at 18 h (in vitro) [×10⁻⁶ cm/s]	Prediction of CNS penetration [1]	BBB permeability in in vitro BBB model [2]	Papp (in vitro) [×10⁻⁶ cm/s]	Apparent oral bioavailability [3]	PAMPA-BBB (Pe) Experimental permeability ([1]; PBS: DMSO (95 : 5), 18 h, mean ± SEM)	BBB permeability in in vitro BBB model ([2]; primary porcine brain endothelial cells (PBECs))
C[C@H]1[C@H](C)CC[C@]2(C(=O)O)CC[C@]3(C)C(=CC[C@@H]4[C@@]5(C)C[C@@H](O)[C@H](O)[C@@](C)(CO)[C@@H]5CC[C@]43C)[C@H]12 [Asiatic acid]	0.3 ± 0.3	CNS− (CNS−, low BBB permeation predicted; Pe, 10–6 cm s^−1 < 2.0)	highly BBB permeable	–	–	–	–
CCn1cc(C(=O)O)c(=O)c2cc(F)c(N3CCNCC3)nc21 [Enoxacin]	–	CNS− (CNS−, low BBB permeation predicted; Pe, 10–6 cm s^−1 < 2.0)	–	–	–	–	–
C[C@H]1[C@H](C)CC[C@]2(C(=O)O)CC[C@]3(C)C(=CC[C@@H]4[C@@]5(C)C[C@@H](O)[C@H](O)[C@@](C)(CO)[C@@H]5[C@H](O)C[C@]43C)[C@H]12 [Madecassic acid]	–	CNS− (CNS−, low BBB permeation predicted; Pe, 10–6 cm s^−1 < 2.0)	–	0.27 ± 0.3	–	–	–
Madecassoside	–	CNS− (CNS−, low BBB permeation predicted; Pe, 10–6 cm s^−1 < 2.0)	–	–	less than 1%	0.26 ± 0.7 10^−6 cm s^−1	highly BBB permeable
